The values that follow come from patent US20220000853A1, “FORMULATIONS, METHODS, KIT, AND DOSAGE FORMS FOR IMPROVED STABILITY OF AN ACTIVE PHARMACEUTICAL INGREDIENT” (Asana BioSciences, LLC, priority 2018, published 2022).

Data set [1] in a line: Stability tests of COMPOUND A formulations at 40° C./75% RH (discoloration, viscosity, physical state). Format: physicochemical. To be noted: poloxamer gel formulations, even at higher concentrations of the salt; expected. The text has this:
Table 5 below provides % w/w for COMPOUND A bromide salt polyethylene glycol ointment.

The next data set deals with sodium channel. The settings on record: through capsaicin-activated TRPV1 channels; cited from earlier work.
Data set [2] can be described thus: Observations in mice after single topical application (motor function, reflexes, weakness, grip strength, application site). It counts as in vivo.
Experimental: 3% COMPOUND A in each of the three vehicle formulations prepared as described in Example 1 above—poloxamer (from Table 4 above); hydroxyethylcellulose (HEC) and polyethylene glycol (Ointment) (50 μl) was applied topically to the skin 6 hours prior to the intradermal injection of chloroquine (CQ) (4 mg/ml, 50 μl). […] Following intradermal CQ injection in the ipsilateral neck area, the number of scratches was counted and cumulative counts were recorded by an automated machine for 40 minutes.
Recovery: The condition of the site of injection was examined and observations of redness, swelling or abrasions due to scratching were made prior to and following scratch counting. Animals were euthanized upon completion of the final observations.
Different test articles comprising varying concentrations of COMPOUND A in hydroxyethyl cellulose (HEC) formulations of the specification (“Gel”) and in dimethylsulfoxide (DMSO) vehicle were tested on mice according to the pruritis model described in Example 2. The same strain of mice was used and the animals were housed in the same manner. Each treatment group consisted of 8 mice, and test articles Gel+COMPOUND A 0.3%, 1%, 3% and 5%, and DMSO+COMPOUND A 3% and 5%, were applied topically to the skin six hours prior to the intradermal injection of chloroquine (CQ) (4 mg/ml, 50 μl). […] Following intradermal CQ injection in the ipsilateral neck area, the number of scratches were counted and cumulative counts were recorded by the automated machine for 40 minutes. Following observation, animals were euthanized. In selected groups (Gel+3% COMPOUND A and Gel+5% COMPOUND A) plasma was harvested at 7 hours following the scratch counting. […] Harvested plasma samples were stored at −20° C. prior to analysis.
The carrier gel alone, with no drug, is referred to as “Gel.” Gel and Gel+COMPOUND A 1%,” “Gel+COMPOUND A 2%” and “Gel+COMPOUND A 3% were applied topically to the skin of groups of 8 mice, each of which were subjected to chloroquine injection (CQ; 4 mg/ml, 50μl) according to the pruritis model described in Example 2 at different time points (3 hours, 6 hours and 15 hours) post application of the test or control articles. The same strain of mice as in Example 2 was used, and the animals were housed in the same manner.
Data set [3] in a line: Tachyphylaxis study: body weight, application site and distress observations. It counts as in vivo. The procedure:
For all three phases, the mice were subjected to the pruritis model as described in Example 2. Upon completion of the scratching assessment mice were placed in their home cage and examined at 24 hours for any adverse skin reactions. Phase 3 animals were euthanized for blood collection following completion of the scratching counts. The condition of the site of injection was examined and observations of redness, swelling or abrasions due to scratching were made following scratch counting and at 24 hours post drug application Animals were euthanized upon completion of the final observations. One mouse died during anesthesia on day 5 after application of 3% drug and one mouse was euthanized because of weight loss. Blood plasma was collected on day 5 following the behavior in the Phase 3 animals. Plasma samples were stored on dry ice until analysis. Data was collected, tabulated and analyzed as described in Example 1, and the results of each phase are discussed below.
This study was performed in three phases, to examine the effect of the successive dosing of poloxamer gel formulations according to the present specification, COMPOUND A (1%) COMPOUND A (3%) and COMPOUND A (3% with gel removal 3 hours after application) on scratching behavior after 5 days of treatment. During Phase 1 of this study, four groups of mice (each n=4) received topical poloxamer gel, COMPOUND A (1%) and COMPOUND A (3%) drug. One group received topical application of COMPOUND A (3%), which was removed after 3 hours. To remove the formulation, a piece of gauze that had been saturated with distilled water was used to gently wipe (not rub) the application site from the rostral end to the caudal end 3 times. The skin was then patted dry with clean gauze. If there were lesions present on the skin, then extra care is taken to avoid irritation or redness.
This treatment was continued for 5 days without any CQ injections. On day 5 all these mice received intradermal CQ 3 hours after the last application of the drug (n=4).

The nature of data set [4]: Single ascending dose first-in-human study: safety and tolerability. To be noted: healthy subjects. Format: in vivo. The protocol:
The objective of this study was to evaluate the safety, tolerability, pharmacokinetics and effect on tactile stimulation of topical formulations of COMPOUND A in healthy subjects.
(§1) Four single ascending dose cohorts (six active and two placebo subjects per cohort) were evaluated after topical application of a COMPOUND A topical poloxamer gel at an application rate of 82, 164, 328 and 492 μg active moiety/cm^2 on the volar forearm over a 10 cm^2 area. Two concentrations of a COMPOUND A topical poloxamer gel: 1% (0.82% active moiety) and 3% (2.46% active moiety) were evaluated in this study. The 1% and 3% gels used were made as described in Example 1 above. Safety was evaluated via hematology, biochemistry and urinalysis clinical laboratory analyses, electrocardiograms and adverse event collection for 14 days following dose administration. The clinical laboratory analyses included hematocrit; Hgb; MCH; MCHC; MCV; MPV; PLT; RBC; WBC and differentials (neutrophils, lymphocytes, monocytes, eosinophils, and basophils relative and absolute); biochemistry albumin; alkaline phosphatase; ALT; AST; chloride; creatinine (enzymatic); GGT; glucose random; LDH; potassium; sodium; total bilirubin; urea (BUN); uric acid; urinalysis color, clarity, pH, specific gravity, bilirubin, glucose, ketones, leukocytes, nitrite, blood, protein, urobilinogen and microscopic analysis. Local skin tolerability was assessed using a 4-point ordinal scale, and serial plasma samples for PK analysis were collected for up to 7 days post-application. The 4-point ordinal scale used was as follows: 0 (None); 1 (Mild); 2 (Moderate); 3 (Severe) for each of the following: erythema, stinging, itching, burning, desquamation, edema, and pain. Semmes-Weinstein microfilaments were used to assess response to tactile stimulation on the treated area of the forearm; these microfilaments were the same as those commonly used to test patients for diabetic neuropathy.

Data set [5] in a line: Single ascending dose first-in-human study: plasma pharmacokinetics. Format: in vivo. To be noted: healthy subjects, topical poloxamer gel, most samples; quantifiable limit. The procedure:
as §1, with “The 4-point ordinal scale used was as follows: 0 (None); 1 (Mild); 2 (Moderate); 3 (Severe) for each of the following: erythema, stinging, itching, burning, desquamation, edema, and pain. Semmes-Weinstein microfilaments were used to assess response to tactile stimulation on the treated area of the forearm; these microfilaments were the same as those commonly used to test patients for diabetic neuropathy.” left out

Data set [6] can be described thus: Single ascending dose first-in-human study: tactile stimulation with Semmes-Weinstein microfilaments. To be noted: healthy subjects, treated area of the forearm, normal skin. It counts as in vivo. The protocol:
as §1, with “The 4-point ordinal scale used was as follows: 0 (None); 1 (Mild); 2 (Moderate); 3 (Severe) for each of the following: erythema, stinging, itching, burning, desquamation, edema, and pain. Semmes-Weinstein microfilaments were used to assess response to tactile stimulation on the treated area of the forearm; these microfilaments were the same as those commonly used to test patients for diabetic neuropathy.” left out

Where [7] appears, read: following single topical application of the drug.

Counter-ions that a name gives are not always drawn.

As for `Cc1ccccc1N(CC[C@H]1CCCC[N+]1(C)C)C1Cc2ccccc2C1` [COMPOUND A methanesulfonate salt, (R)-2-(2-((2,3-dihydro-1H-inden-2-yl)(o-tolyl)amino)ethyl)-1,1-dimethylpiperidin-1-ium], the Discoloration result in data set [1] is reported as “little to no discoloration”.

Consider `CC[N+](CC)(CC)CC(=O)Nc1c(C)cccc1C` [QX-314], for which the Sodium channel activity result in the data set with sodium channel was “permeates through capsaicin-activated TRPV1 channels and blocks sodium channel activity”.

As for `Cc1ccccc1N(CC[C@H]1CCCC[N+]1(C)C)C1Cc2ccccc2C1` [COMPOUND A, (R)-2-(2-((2,3-dihydro-1H-inden-2-yl)(o-tolyl)amino)ethyl)-1,1-dimethylpiperidin-1-ium], in data set [2] (3% in HEC gel, poloxamer gel or ointment), the “Scratching at the site of application prior to injection of CQ” value is “did not display scratching”. Besides, in data set [2] (following single topical application), the Weakness entry was “No weakness was observed”. Further, in data set [2] (setting [7]), the “Motor function (measured by placing and stepping)” value is “normal”; the “Pinna and corneal reflexes” value is “normal”. Moreover, the Recovery entry in data set [3] (Phase 1, observed until day 9) is “they all recovered their weight and from their redness”. For the same molecule, in data set [3] (Phase 1, poloxamer gel 1% and 3%, 5 days), the Body weight entry is “slight drop in the weight”. Besides, the Lethargy or distress entry in data set [3] (Phase 1, poloxamer gel, 5 days) is “No signs of lethargy or distress were observed”. In addition, the “Skin at the site of application” value in data set [3] (Phase 1, poloxamer gel, 5 days (scaly by day 3; redness Day 4 and 5, no gel removal)) was “scaly texture at the site of application”. Further, in data set [3] (Phase 2, poloxamer gel 0.1% and 0.3%, 5 days), the Body weight result is “No weight loss was observed”. Moreover, the “Local tolerability of the gels (4-point ordinal scale)” value in data set [4] (topical poloxamer gel 1% and 3%) was “Excellent local tolerability”. Moreover, in data set [4] (topical poloxamer gel 1% and 3%, single dose 82, 164, 328 and 492 μg active moiety/cm^2, volar forearm 10 cm^2), the “Tolerability of all doses” value is reported as “well-tolerated”. Besides, the “Dose-limiting toxicities or treatment-related adverse events” value in data set [4] (up to the highest administered dose (492 μg active moiety/cm^2)) is “No dose-limiting toxicities or treatment-related adverse events were reported”. In addition, in data set [5], the Plasma concentration is less than 0.01 ng/mL. The Tactile stimulation assessments entry in data set [6] is reported as “No trends were noted”.
